Experimental data taken from patent US12590953B2, “Methods for screening cereblon modifying compounds” (CELGENE CORPORATION, priority 2018, dated 2026).
Peptide text beside a SMILES is read from it. * marks the point of attachment. Cbz = O=C(OCc1ccccc1)*

Columns and labels:
[1] = biological target: T1, SALL4 (Homo sapiens, UniProt Q96SW2+Q9UJQ4); test: SALL4 protein level in human iPS cells, immunoblot; format: cell-based; details: human iPS cells; 1 μM MLN4924 or 10 μM MG132 for 6 hours with thalidomide
T1 construct: host or cells: human iPS cells (CRBN wild-type and CRBN knock-out)
T1 sequence (Q9UJQ4 whole entry): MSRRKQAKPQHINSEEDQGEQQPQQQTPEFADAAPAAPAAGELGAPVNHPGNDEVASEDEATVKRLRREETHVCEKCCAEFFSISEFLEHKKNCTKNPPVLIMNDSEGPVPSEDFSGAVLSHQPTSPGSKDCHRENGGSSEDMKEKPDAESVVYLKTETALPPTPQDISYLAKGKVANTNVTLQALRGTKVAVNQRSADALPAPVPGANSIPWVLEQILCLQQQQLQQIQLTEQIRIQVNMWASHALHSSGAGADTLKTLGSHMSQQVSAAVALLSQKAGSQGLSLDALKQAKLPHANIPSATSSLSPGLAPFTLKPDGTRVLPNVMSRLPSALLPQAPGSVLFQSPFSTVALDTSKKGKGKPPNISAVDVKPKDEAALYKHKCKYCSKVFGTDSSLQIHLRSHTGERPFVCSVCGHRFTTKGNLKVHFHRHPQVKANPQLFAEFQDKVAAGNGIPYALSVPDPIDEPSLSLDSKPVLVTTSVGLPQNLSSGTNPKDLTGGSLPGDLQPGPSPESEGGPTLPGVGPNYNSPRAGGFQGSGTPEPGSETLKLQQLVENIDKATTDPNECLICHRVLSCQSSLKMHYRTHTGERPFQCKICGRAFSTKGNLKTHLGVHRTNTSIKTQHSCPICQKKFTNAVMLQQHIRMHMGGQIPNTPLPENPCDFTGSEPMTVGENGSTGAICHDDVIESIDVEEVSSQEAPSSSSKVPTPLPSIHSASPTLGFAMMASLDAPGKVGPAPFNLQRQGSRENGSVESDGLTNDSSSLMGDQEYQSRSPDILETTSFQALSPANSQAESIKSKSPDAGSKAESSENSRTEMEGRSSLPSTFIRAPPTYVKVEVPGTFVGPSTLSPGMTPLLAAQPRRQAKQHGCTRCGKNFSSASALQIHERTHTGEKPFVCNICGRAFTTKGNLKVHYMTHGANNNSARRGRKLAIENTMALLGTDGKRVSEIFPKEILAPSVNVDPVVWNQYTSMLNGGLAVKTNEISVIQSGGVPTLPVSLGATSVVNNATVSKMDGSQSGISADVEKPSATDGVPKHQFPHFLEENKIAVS
T1 sequence (Q96SW2 whole entry): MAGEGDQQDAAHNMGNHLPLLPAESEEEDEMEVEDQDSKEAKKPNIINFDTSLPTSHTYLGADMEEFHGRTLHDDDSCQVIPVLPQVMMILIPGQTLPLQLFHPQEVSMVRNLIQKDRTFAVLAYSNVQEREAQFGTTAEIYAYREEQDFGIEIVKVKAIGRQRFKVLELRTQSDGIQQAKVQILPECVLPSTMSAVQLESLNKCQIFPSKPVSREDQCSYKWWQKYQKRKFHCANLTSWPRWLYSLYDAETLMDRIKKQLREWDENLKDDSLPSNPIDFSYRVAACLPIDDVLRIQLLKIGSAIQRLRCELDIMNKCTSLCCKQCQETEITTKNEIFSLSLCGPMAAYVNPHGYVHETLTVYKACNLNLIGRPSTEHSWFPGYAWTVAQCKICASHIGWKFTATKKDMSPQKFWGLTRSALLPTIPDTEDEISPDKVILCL
T1 sequence (Q16531 whole entry partner): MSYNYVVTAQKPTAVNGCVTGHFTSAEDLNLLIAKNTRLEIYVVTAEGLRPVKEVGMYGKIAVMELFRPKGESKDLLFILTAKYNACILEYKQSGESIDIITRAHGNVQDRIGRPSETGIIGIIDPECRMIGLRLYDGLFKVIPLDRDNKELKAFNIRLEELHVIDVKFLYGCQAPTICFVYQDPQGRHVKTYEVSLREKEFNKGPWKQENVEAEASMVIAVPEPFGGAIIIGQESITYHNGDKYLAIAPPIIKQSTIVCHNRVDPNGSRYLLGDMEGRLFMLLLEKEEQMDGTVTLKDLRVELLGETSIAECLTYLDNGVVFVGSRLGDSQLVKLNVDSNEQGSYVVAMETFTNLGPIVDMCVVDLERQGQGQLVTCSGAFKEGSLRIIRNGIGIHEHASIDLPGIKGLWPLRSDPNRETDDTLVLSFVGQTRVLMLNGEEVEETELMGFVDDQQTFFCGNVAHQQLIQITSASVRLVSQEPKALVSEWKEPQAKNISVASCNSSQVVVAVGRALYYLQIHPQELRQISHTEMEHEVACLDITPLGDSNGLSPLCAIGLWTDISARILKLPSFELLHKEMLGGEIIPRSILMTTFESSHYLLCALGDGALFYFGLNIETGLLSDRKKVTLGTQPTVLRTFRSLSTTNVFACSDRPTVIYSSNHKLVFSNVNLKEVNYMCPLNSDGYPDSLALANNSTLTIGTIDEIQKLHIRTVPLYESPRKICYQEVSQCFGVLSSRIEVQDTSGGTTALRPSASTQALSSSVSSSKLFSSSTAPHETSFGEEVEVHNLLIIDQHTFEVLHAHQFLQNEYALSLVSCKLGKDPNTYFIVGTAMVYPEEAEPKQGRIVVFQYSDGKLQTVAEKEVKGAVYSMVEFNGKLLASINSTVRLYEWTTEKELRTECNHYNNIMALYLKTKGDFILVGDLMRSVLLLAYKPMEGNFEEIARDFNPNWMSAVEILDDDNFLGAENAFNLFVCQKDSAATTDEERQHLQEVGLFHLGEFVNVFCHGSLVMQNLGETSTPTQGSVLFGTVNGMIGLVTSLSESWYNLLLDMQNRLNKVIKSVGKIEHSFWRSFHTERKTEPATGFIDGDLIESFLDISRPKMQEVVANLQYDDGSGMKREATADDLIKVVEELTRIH
Experimental: Immunoblot analysis of whole cell lysates of CRBN wild-type (WT) and CRBN knock-out (−/−) human iPS cells was performed. Cells were treated with DMSO vehicle control (−) or thalidomide (Thal) at indicated concentrations for 16 hours (n=4, biological replicates).
Immunoblot analysis of whole cell lysates of human iPS cells treated with DMSO (−) or Thal (+) in the presence or absence of 1 μM MLN4924 or 10 μM MG132 for 6 hours were performed (n=2, biological replicates).
Human iPS cell lines ACS-1019 and ACS-1011 (derived from healthy donors) were obtained from ATCC. The hiPSCs were maintained in mTESR-1 medium (Stem Cell Technologies) in cell culture plates coated with a thin layer of Matrigel (BD Biosciences) incubated at 37° C. in a humidified 5% CO2 incubator according to the manufacturer's instruction. Cells were split through mechanic passaging with a glass pipet and enzymatically digestion with Dispase or Accutase every 2 to 3 days.
Human iPSCs, ACS-1019 was transduced with lentiviral vectors expressing CRISPR-Cas9 and small guide RNA targeting cereblon for 4 days. The resulting colonies were amplified and screened for cereblon knockout by immunoblot analysis with anti-CRBN65 antibody (Celgene).

[2] = biological target: T2, ZFP91 (Homo sapiens, UniProt Q96JP5+Q96SW2); test: Degradation of ZFP91 in Lenti-x 293 cells (control substrate); format: cell-based; details: Lenti-x 293 cell lines expressing cereblon
T2 construct: endogenous in cells; host or cells: Lenti-x 293 cell line with CRISPR-cas9 cereblon knock-out, transfected with GST-cereblon
T2 sequence (Q96JP5 2-570 limits assumed): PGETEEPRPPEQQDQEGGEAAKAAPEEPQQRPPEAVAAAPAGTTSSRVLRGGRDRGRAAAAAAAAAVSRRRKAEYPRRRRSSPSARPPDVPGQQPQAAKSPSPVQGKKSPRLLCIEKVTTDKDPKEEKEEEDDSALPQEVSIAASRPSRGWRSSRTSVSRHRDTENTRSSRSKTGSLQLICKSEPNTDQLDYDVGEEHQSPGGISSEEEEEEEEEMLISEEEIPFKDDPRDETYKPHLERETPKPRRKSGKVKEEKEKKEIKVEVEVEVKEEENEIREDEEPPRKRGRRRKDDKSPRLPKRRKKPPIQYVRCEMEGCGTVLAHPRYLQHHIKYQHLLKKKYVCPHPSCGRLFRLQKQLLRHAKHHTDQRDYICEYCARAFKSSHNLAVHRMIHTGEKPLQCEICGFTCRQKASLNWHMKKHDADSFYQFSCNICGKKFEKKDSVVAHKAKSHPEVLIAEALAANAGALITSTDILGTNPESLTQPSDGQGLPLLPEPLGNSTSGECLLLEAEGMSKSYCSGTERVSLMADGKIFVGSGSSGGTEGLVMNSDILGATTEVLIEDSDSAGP
T2 sequence (Q96SW2 whole entry): as the sequence (Q96SW2 whole entry) above
T2 sequence (Q16531 whole entry partner): as the sequence (Q16531 whole entry partner) above

[3] = biological target: T3, endogenous SALL4 in NCCIT, NETRA-2 c1.D1 and AN3-CA cancer cell lines (Homo sapiens, UniProt Q96SW2+Q9UJQ4); test: Degradation of endogenous SALL4 in cancer cell lines, western blot; format: cell-based; details: 16 hour treatment; anti-SALL4 western blot
T3 construct: endogenous in cells; host or cells: NCCIT, NETRA-2 c1.D1 and AN3-CA cancer cell lines

[4] = system: SALL4 binding to cereblon; format: cell-based, human
Experimental: Binding of full length SALL4 to cereblon in cells was then tested by co-immunoprecipitation (see FIG. 3). HA-tagged WT, G416A, or G600A SALL4 was immunoprecipitated from cells, and the level of co-purifying cereblon was assessed by western blot. Briefly, a Lenti-x 293 cell line with a CRISPR-cas9 knock-out of cereblon and stable expression of HA-tagged SALL4 or SALL4 mutants was transfected with either GST-cereblon or empty vector. […] The amount of co-purifying GST-cereblon was then assessed by western blot.

Compound	Effect on thalidomide-induced reduction in SALL4 protein levels [1]	ZFP91 degradation [2]	Degradation of endogenous SALL4 [3]	Binding of G416A SALL4 to cereblon ([4]; HA-tagged G416A SALL4, anti-HA pull-down)	Binding of G600A SALL4 to cereblon ([4]; HA-tagged G600A SALL4, anti-HA pull-down)	Binding of WT SALL4 to cereblon (co-purifying GST-cereblon, western blot) ([4]; HA-tagged WT SALL4, anti-HA pull-down)
CC(C)C[C@@H](C=O)NC(=O)[C@H](CC(C)C)NC(=O)[C@H](CC(C)C)NC(=O)OCc1ccccc1 [MG132] (Cbz-Leu-Leu-Leu-aldehyde)	prevented					
NS(=O)(=O)OC[C@@H]1C[C@@H](n2ccc3c(N[C@H]4CCc5ccccc54)ncnc32)C[C@@H]1O [MLN4924]	prevented					
Nc1cccc2c1C(=O)N(C1CCC(=O)NC1=O)C2=O (stereo not shown) [pomalidomide]		exhibited compound-dependent degradation in all cell lines expressing cereblon	Significant compound-dependent degradation of endogenous SALL4 was observed	disrupted the binding significantly	strong, compound-dependent binding to cereblon	strong, compound-dependent binding to cereblon
